Laboratory results published in patent publication US4604239A, “Antibiotics” (Eli Lilly and Company, priority 1985, dated 1986).
“And” between values parts separate entries of the source, which are not always exact repeats. Equal values may be shown once.

System: Staphylococcus aureus
Assay: agar-dilution MIC
Assay type: cell-based
Conditions: Staphylococcus aureus S13E; Table 17

Substance | MIC
A41030 factor E | 0.25 µg/mL
A41030 factor D | 0.25 µg/mL

Same assay, conditions: in µg/mL

Substance | MIC
A41030 factor E | 0.125 and 0.25

System: Hemophilus influenzae
Assay: agar-dilution MIC
Assay type: cell-based
Conditions: Haemophilus influenzae 76; Table 17

Substance | MIC
A41030 factor E | 8 µg/mL
A41030 factor D | 8 µg/mL

Same assay, conditions: Haemophilus influenzae C.L.; Table 17

Substance | MIC
A41030 factor E | 8 µg/mL
A41030 factor D | 8 µg/mL

System: Bacteroides fragilis
Assay: agar-dilution MIC
Assay type: cell-based
Conditions: Bacteroides fragilis 111; Table 14
Description: (§1) The agar-dilution procedure described by the International Collaborative study (ICS) group was used to determine the minimum inhibitory concentrations (MIC's).

Substance | MIC
A41030 factor E | 64 µg/mL
A41030 factor D | 32 µg/mL

Same assay, conditions: Bacteroides fragilis 1877; Table 14

Substance | MIC
A41030 factor E | 32 µg/mL
A41030 factor D | 32 µg/mL

Same assay, conditions: Bacteroides fragilis 1936B; Table 14

Substance | MIC
A41030 factor E | 64 µg/mL
A41030 factor D | 32 µg/mL

System: Staphylococcus epidermidis
Assay: agar-dilution MIC
Assay type: cell-based
Conditions: Staphylococcus epidermidis EPI1; Table 17
Description: as §1

Substance | MIC
A41030 factor E | 0.25 µg/mL
A41030 factor D | 0.25 µg/mL

Same assay, conditions: Staphylococcus epidermidis EPI2; Table 17

Substance | MIC
A41030 factor D | 1 µg/mL

System: Streptococcus pneumoniae
Assay: agar-dilution MIC
Assay type: cell-based
Conditions: Streptococcus pneumoniae Park I; Table 17
Description: as §1

Substance | MIC
A41030 factor E | 0.25 µg/mL
A41030 factor D | 0.5 µg/mL

System: Streptococcus pyogenes
Assay: agar-dilution MIC
Assay type: cell-based
Conditions: Streptococcus pyogenes C203; Table 17
Description: as §1

Substance | MIC
A41030 factor E | 0.25 µg/mL
A41030 factor D | 0.5 µg/mL

System: Streptococcus sp. (Group D)
Assay: agar-dilution MIC
Assay type: cell-based
Conditions: Streptococcus sp. Group D 9960; Table 17
Description: as §1

Substance | MIC
A41030 factor E | 1 µg/mL
A41030 factor D | 1 µg/mL

Same assay, conditions: Streptococcus sp. Group D X66; Table 17

Substance | MIC
A41030 factor E | 1 µg/mL
A41030 factor D | 1 µg/mL

System: Bacteroides thetaiotaomicron
Assay: not given
Assay type: cell-based
Conditions: Bacteroides thetaiotaomicron 1438; Table 14
Description: as §1

Substance | MIC
A41030 factor E | 64 µg/mL
A41030 factor D | 32 µg/mL

System: Propionibacterium acnes
Assay: agar-dilution MIC
Assay type: cell-based
Conditions: Propionibacterium acnes 79; Table 14
Description: Antibiotic A41030 factors A, B and C have also been tested and found to be active against a genus of anaerobic bacteria identified as Propionibacterium acnes.

Substance | MIC
A41030 factor E | 0.5 µg/mL
A41030 factor D | 0.25 µg/mL

System: Clostridium difficile
Assay: not given
Assay type: cell-based
Conditions: Clostridium difficile 78; Table 16

Substance | MIC
A41030 factor E | 0.5 µg/mL
A41030 factor D | ≤ 0.25 µg/mL

Same assay, conditions: Clostridium difficile 107B; Table 16

Substance | MIC
A41030 factor E | 0.5 µg/mL
A41030 factor D | ≤ 0.25 µg/mL

Same assay, conditions: Clostridium difficile 111F; Table 16

Substance | MIC
A41030 factor E | 0.5 µg/mL
A41030 factor D | ≤ 0.25 µg/mL

Same assay, conditions: Clostridium difficile 1153; Table 16

Substance | MIC
A41030 factor E | 1.0 µg/mL
A41030 factor D | 1.0 µg/mL

Same assay, conditions: Clostridium difficile 2634; Table 16

Substance | MIC
A41030 factor E | 1.0 µg/mL
A41030 factor D | 0.5 µg/mL

Same assay, conditions: Clostridium difficile 2994; Table 14

Substance | MIC
A41030 factor E | 0.5 µg/mL

Same assay, conditions: Clostridium difficile 3424-5B; Table 16

Substance | MIC
A41030 factor E | 0.5 µg/mL
A41030 factor D | 0.5 µg/mL

Same assay, conditions: Clostridium difficile 3816; Table 16

Substance | MIC
A41030 factor E | 0.5 µg/mL
A41030 factor D | 0.5 µg/mL

Same assay, conditions: Clostridium difficile 3950D; Table 16

Substance | MIC
A41030 factor E | 0.5 µg/mL

Same assay, conditions: Clostridium difficile 6890; Table 16

Substance | MIC
A41030 factor E | 0.5 µg/mL
A41030 factor D | 0.5 µg/mL

Same assay, conditions: Clostridium difficile 8484; Table 16

Substance | MIC
A41030 factor E | 0.5 µg/mL
A41030 factor D | ≤ 0.25 µg/mL

Same assay, conditions: Clostridium difficile A-194; Table 16

Substance | MIC
A41030 factor E | 0.5 µg/mL
A41030 factor D | ≤ 0.25 µg/mL

Same assay, conditions: Clostridium difficile A-195; Table 16

Substance | MIC
A41030 factor E | 0.5 µg/mL
A41030 factor D | ≤ 0.25 µg/mL

Same assay, conditions: Clostridium difficile A-196; Table 16

Substance | MIC
A41030 factor E | 1.0 µg/mL
A41030 factor D | 0.5 µg/mL

Same assay, conditions: Clostridium difficile A-279; Table 16

Substance | MIC
A41030 factor E | 0.5 µg/mL
A41030 factor D | ≤ 0.25 µg/mL

Same assay, conditions: Clostridium difficile A-280; Table 16

Substance | MIC
A41030 factor E | 0.5 µg/mL
A41030 factor D | ≤ 0.25 µg/mL

Same assay, conditions: Clostridium difficile A-281; Table 16

Substance | MIC
A41030 factor E | 1.0 µg/mL
A41030 factor D | 0.5 µg/mL

Same assay, conditions: Clostridium difficile WAL-2112; Table 16

Substance | MIC
A41030 factor E | 0.5 µg/mL
A41030 factor D | ≤ 0.25 µg/mL

Same assay, conditions: Clostridium difficile WAL-3657; Table 16

Substance | MIC
A41030 factor E | 0.5 µg/mL
A41030 factor D | ≤ 0.25 µg/mL

Same assay, conditions: Clostridium difficile WAL-4268; Table 16

Substance | MIC
A41030 factor E | 0.5 µg/mL
A41030 factor D | ≤ 0.25 µg/mL

System: Clostridium perfringens
Assay: not given
Assay type: cell-based
Conditions: Clostridium perfringens 81; Table 14

Substance | MIC
A41030 factor E | 1.0 µg/mL
A41030 factor D | 0.5 µg/mL

System: Clostridium septicum
Assay: agar-dilution MIC
Assay type: cell-based
Conditions: Clostridium septicum 1128; Table 14

Substance | MIC
A41030 factor E | 0.5 µg/mL
A41030 factor D | 0.25 µg/mL

System: Eubacterium aerofaciens
Assay: agar-dilution MIC
Assay type: cell-based
Conditions: Eubacterium aerofaciens 1235; Table 14

Substance | MIC
A41030 factor E | 0.5 µg/mL
A41030 factor D | 0.5 µg/mL

System: Peptococcus asaccharolyticus
Assay: agar-dilution MIC
Assay type: cell-based
Conditions: Peptococcus asaccharolyticus 1302; Table 14
Description: The MIC values were determined by the agar-dilution method, and are recorded in Table 15, which follows.

Substance | MIC
A41030 factor E | ≤ 0.25 µg/mL

System: Peptostreptococcus anaerobius
Assay: agar-dilution MIC
Assay type: cell-based
Conditions: Peptostreptococcus anaerobius 1428; Table 14

Substance | MIC
A41030 factor E | 32 µg/mL
A41030 factor D | 0.5 µg/mL

System: Peptostreptococcus intermedius
Assay: agar-dilution MIC
Assay type: cell-based
Conditions: Peptostreptococcus intermedius 1264; Table 14

Substance | MIC
A41030 factor E | 32 µg/mL
A41030 factor D | 1.0 µg/mL

System: Bacteroides melaninogenicus
Assay: agar-dilution MIC
Assay type: cell-based
Conditions: Bacteroides melaninogenicus 1856/28; Table 14

Substance | MIC
A41030 factor D | > 64 µg/mL

Same assay, conditions: Bacteroides melaninogenicus 2736; Table 14

Substance | MIC
A41030 factor E | 32 µg/mL
A41030 factor D | 0.5 µg/mL

System: Fusobacterium symbiosum
Assay: agar-dilution MIC
Assay type: cell-based
Conditions: Fusobacterium symbiosum 1470; Table 14

Substance | MIC
A41030 factor E | 1.0 µg/mL
A41030 factor D | 0.5 µg/mL

System: Fusobacterium necrophorum
Assay: agar-dilution MIC
Assay type: cell-based
Conditions: Fusobacterium necrophorum 6054A; Table 14

Substance | MIC
A41030 factor E | 0.5 µg/mL

System: Escherichia coli
Assay: agar-dilution MIC
Assay type: cell-based
Conditions: Escherichia coli TEM; Table 17
Description: The results after reading the which follows.

Substance | MIC
A41030 factor D | 64 µg/mL

System: Staph. aureus
Assay: experimental bacterial infection in mice
Assay type: in vivo
Conditions: two doses subcutaneously
Description: All of the A41030 factors tested have shown in vivo antimicrobial activity against experimental bacterial infections. When two doses of test compound were administered subcutaneously to mice in illustrative infections, the activity observed is measured as an ED50 value [effective dose in mg./kg. to protect fifty percent of the test animals: See Warren Wick, et al., J. Bacteriol. 81, 233-235 (1961)].

Substance | ED50
A41030 factor E | < 0.31 mg/kg

System: not listed separately
Assay: electrometric titration
Assay type: physicochemical
Conditions: electrometric titration in 66% dimethylformamide in water
Description: Antibiotic A41030 factor A is a white, crystalline solid.

Substance | possibly additional pKa's
A41030 factor E | > 10
A41030 factor D | > 10

System: not listed separately
Assay: solubility
Assay type: physicochemical
Conditions: not given

Substance | solubility (solvents)
A41030 factor E | soluble in the same solvents as factor A
A41030 factor D | soluble in the same solvents as factor A

System: Bacteroides corrodens
Assay: agar-dilution MIC
Assay type: cell-based
Conditions: Bacteroides corrodens 1874; Table 14

Substance | MIC
A41030 factor E | 64 µg/mL
A41030 factor D | 32 µg/mL

System: Bacteroides vulgatis
Assay: agar-dilution MIC
Assay type: cell-based
Conditions: Bacteroides vulgatis 1211; Table 14

Substance | MIC
A41030 factor E | 32 µg/mL
A41030 factor D | 32 µg/mL

System: Peptococcus prevoti
Assay: agar-dilution MIC
Assay type: cell-based
Conditions: Peptococcus prevoti 1281; Table 14

Substance | MIC
A41030 factor E | 32 µg/mL
A41030 factor D | 0.25 µg/mL
